Results on two compounds are retold here after patent publication US20250120928A1 (University of Maryland, Baltimore, priority 2021, published 2025).

Molecules are shown by their SMILES.

Data set [1] concerns BMMØs. Kind of data set: Western blot analysis of acetyl-histone H3 and acetyl-α-tubulin. As to conditions: 10 μM, unstimulated BMMØs, 4 and 9 hours. (Immunoblotting shows a protein as a band on a membrane.)
Experimental: Day 8 BMMØs were seeded at 1×10^6 cells/well in sterile 6-well plates incubated at 37° C. and 5% CO2 overnight to allow for cell adherence. […] Cells were lysed with Halt™ Protease Inhibitor Cocktail (Cat #78429) (Thermo Fisher, Waltham MA) in RIPA Buffer (Cat #R0278) (Sigma-Aldrich, St. Louis, MO) and scraped with a cell scraper (VWR, Radnor, PA). Lysates were sonicated with a ⅛^th needle tip using a Cole-Parmer 500-Watt Ultrasonic Homogenizer at 40% amplitude for 10 seconds on ice. Lysates were then centrifuged at 4° C. for 20 minutes at 12,000×g. The supernatant was collected and frozen at −80° C. until ready for western blot analysis. Protein lysates were produced using 50/50 sample to 2×SDS/PAGE sample buffer. Proteins were then separated by SDS/PAGE and immunoblotted using Histone H3 (D1H2) XP, Acetyl-Histone H3 (lys9/Lys14), α-Tubulin (11H10), Acetyl-α-Tubulin (Lys40) (D20G3) XP and β-Actin as primary antibodies. ECL was used for detection.
Day 8 BMMØs were seeded at 1×10^6 cells/well in sterile 6-well plates incubated at 37° C. and 5% CO2 overnight to allow for cell adherence. […] Cells were lysed with Halt™ Protease Inhibitor Cocktail (Cat #78429) (Thermo Fisher, Waltham MA) in RIPA Buffer (Cat #R0278) (Sigma-Aldrich, St. Louis, MO) and scraped with a cell scraper (VWR, Radnor, PA). Lysates were sonicated with a ⅛th needle tip using a Cole-Parmer 500-Watt Ultrasonic Homogenizer at 40% amplitude for 10 seconds on ice. Lysates were then centrifuged at 4° C. for 20 minutes at 12,000×g. The supernatant was collected and frozen at −80° C. until ready for western blot analysis. Protein lysates were produced using 50/50 sample to 2×SDS/PAGE sample buffer. Proteins were then separated by SDS/PAGE and immunoblotted using Histone H3 (D1H2) XP, Acetyl-Histone H3 (Lys9/Lys14), α-Tubulin (11H10), Acetyl-α-Tubulin (Lys40) (D20G3) XP and β-Actin as primary antibodies. ECL was used for detection.
The test system of data set [2] is LPS-induced endotoxemia mouse model. Kind of data set: Plasma cytokine analysis in the LPS-induced endotoxemia mouse model. It is filed as in vivo, male C57BL/6J mice. To be noted: 50 mg/kg i.p. 3 hours before 20 mg/kg LPS i.p.; blood 3 hours post-LPS. On the procedure:
Terminal cardiac blood draws from the left ventricle occurred 3 hours post LPS injections using a 25 g needle and 1 mL syringe into an EDTA coated lavender blood collection tube (BD Medical, Franklin Lakes, NJ). Blood samples were centrifuged at 1000×g for 10 minutes within 30 minutes of collection. Plasma was extracted and diluted 10,000-fold for ELISA IL-6 measurement and diluted 10-fold for TNFα measurements.
Terminal cardiac blood draws from the left ventricle occurred 3 hours post LPS injections using a 25 g needle and 1 mL syringe into an EDTA coated lavender blood collection tubes (BD Medical, Franklin Lakes, NJ). Blood samples were centrifuged at 1000×g for 10 minutes within 30 minutes of collection. Plasma was extracted and diluted 10,000-fold for ELISA IL-6 measurement and diluted 10-fold for TNFα measurements. MAGPIX Luminex bead-based multiplex ELISA (Thermo Fisher Scientific, Waltham, MA) of mouse plasma (diluted 100-fold) measured for 26 various cytokines and chemokines and data was analyzed using the Luminex xPONENT software (Millipore) as per manufacturer's instructions. The 26-plex panel include murine IL-1β, IL-2, IL-4, IL-5, IL-6, IL-9, IL-10, IL-12p70, IL-13, IL-17A (CTLA-8), IL-18, IL-22, IL-23, IL-27, GM-CSF, IFNγ, TNFα, MCP-1 (CCL2), MIP-1α (CCL3), MIP-10 (CCL4), RANTES (CCL5), MCP-3 (CCL7), Eotaxin (CCL11), GROα (CXCL1), MIP-2a (CXCL2), and IP-10 (CXCL10).

The test system of data set [3] is BMMØs. It is filed as cell-based. The method, then: (§1) Three hours later, cells were stimulated with 100 ng/mL LPS. After 48 hours, cells were lifted using Versene and washed with cold PBS supplemented with 1% FBS and 0.4% 0.5 M EDTA (Quality Biological, Gaithersburg, MD). FcR blocking was performed with purified anti-mouse CD16/32 antibody (#101301) (Biolegend, San Diego, CA) prior to staining with Annexin V-FITC and propidium iodide kit (#640914) (BioLegend, San Diego, CA) for apoptosis and cell death. Cell staining was conducted according to BioLegend protocols for flow cytometry. Flow cytometry data were collected using a Becton Dickinson LSR II or Becton Dickinson Canto II flow cytometer. Flow plots and data processing was done using FCS Express 7 Flow Cytometry De Novo Software (De Novo, Glendale, CA).
as §1, with “After” for “Three hours later, cells were stimulated with 100 ng/mL LPS. After”

Data set [4] deals with B cells (B220+) isolated from splenocytes. Kind of data set: Splenocyte apoptosis and cell death by AV/PI flow cytometry, B cells. It is filed as cell-based. On the procedure:
Splenocytes were isolated from spleens as previously described. Briefly, 5-12-week C57BL/6J female mice were euthanized and the spleen was isolated. The spleen was processed into single-cell suspensions using a 40 μm cell strainer and flushed with cold PBS supplemented with 1% FBS and 0.4% 0.5 M EDTA (Quality Biological, Gaithersburg, MD). Erythrocytes were lysed with ACK lysis buffer (Quality Biological, Gaithersburg, MD). […] Subsequently, splenocytes were stimulated with 100 ng/mL LPS for 24 hours. Splenocytes were then washed with cold PBS supplemented with 1% FBS and 0.4% 0.5 M EDTA and FcR blocked, as previously mentioned. Splenocytes were then stained with purified anti-mouse PE/Cyanine7 CD45R/B220 antibody (#103222) (BioLegend, San Diego, CA) for the B cell population. SAHA and SAHA-OH apoptosis and cell death were then assessed using the FITC-AV Apoptosis Detection Kit with PI via flow cytometry, as previously mentioned. Flow cytometry data were collected using a Cytex Aurora flow cytometer. Flow plots and data processing was done using FCS Express 7 Flow Cytometry De Novo Software (De Novo, Glendale, CA).

Data set [5] concerns T cells (CD3+) from splenocytes. Kind of data set: Splenocyte apoptosis and cell death by AV/PI flow cytometry, T cells. In kind it is cell-based. As to conditions: concentrations up to 30 μM. For orientation: A flow cytometer gives signals particle by particle.
The subject of a further data set is spleen and liver. Kind of data set: Hematoxylin and eosin (H&E) histology of spleen and liver, LPS-induced endotoxemia mice. To be noted: 50 mg/kg i.p. 3 hours before 20 mg/kg LPS; 3 hours post-LPS. It is filed as in vivo, male C57BL/6J mice. On the procedure: The differences in tissue architecture of liver and spleen were assessed using the same cohort of mice as the cytokine analysis at 3 hours post-LPS administration. Prior to tissue harvest, whole-body perfusion was performed post-cardiac blood draw by slowly flushing 10 mL of 37° C. PBS through the left ventricle of the heart while a cut in the right atrium allowed for the flow of blood. The liver and spleen were harvested, placed into tissue cassettes (VWR, Radnor, PA), and fixed overnight in 10% buffered formalin (Sigma-Aldrich, St. Louis, MO). The following day, the organs were paraffin-embedded and sectioned into 5 μm slices. Slides were stained for H&E to define histological architecture using standard procedures.
The differences in tissue architecture of liver and spleens were assessed at 3 hours post-LPS administration. Prior to tissue harvest, whole body perfusion was performed by slowly flushing 10 mL of 37° C. PBS through the left ventricle of the heart while a cut in the right atrium allowed for the flow of blood. The liver and spleen were harvested, placed into tissue cassettes, and fixed overnight in 10% buffered formalin. The following day, the organs were paraffin embedded and sectioned in 5 μm slices. Slides were stained for H&E to define histological architecture using standard procedures.

The test system of data set [6] is LPS-stimulated bone marrow macrophages (BMMØ). Description: BMMØ cytokine secretion following LPS stimulation (ELISA, Luminex). In kind it is cell-based, C57BL/6J mice. The method, then: Three hours later, cells were stimulated with 100 ng/mL LPS. After 48 hours, cell culture supernatants were collected and analyzed by enzyme-linked immunosorbent assays (ELISA) (BioLegend, San Diego, CA) to measure murine IL-6 and TNFα. MAGPIX Luminex bead-based multiplex ELISA (Thermo Fisher Scientific, Waltham, MA) measured for 7 various cytokines and chemokines, and data were analyzed using the Luminex xPONENT software (Millipore) as per manufacturer's instructions. The 7-plex panel included murine IFNβ, IL-10, IL-6, IL-1β, MCP-1 (CCL2), TNFα, and GROα (CXCL1).
After 48 hours, cell culture supernatants were collected and analyzed by enzyme-linked immunosorbent assays (ELISA) (BioLegend, San Diego, CA) to measure murine IL-6 and TNFα. MAGPIX Luminex bead-based multiplex ELISA (Thermo Fisher Scientific, Waltham, MA) measured for 7 various cytokines and chemokines, and data were analyzed using the Luminex xPONENT software (Milli-pore) as per manufacturer's instructions. The 7-plex panel included murine IFNβ, IL-10, TL-6, IL-1β, MCP-1 (CCL2), TNFα, and GROα (CXCL1).

A further data set deals with HDAC1, 2, 3. As to conditions: comparison value for Tubastatin A; read-out: IC50 against HDAC1, 2, 3; cited from earlier work.
[7] abbreviates: 0-30 μM for 3 hours, then LPS 100 ng/mL 48 hours, ELISA.

Take `O=C(CCCCCCC(=O)Nc1ccccc1)NO` [SAHA, N^1-hydroxy-N^8-phenyloctanediamide, reference compound]: the “acetylation of α-tubulin” value in the data set on BMMØs [1] is “similarly resulted in the acetylation”. Also, in data set [2], the “reduction of plasma IL-6” value is on record as “about 50%” and the “reduction of plasma TNFα” value is on record as “about 50%”. Also, in the data set with BMMØs [3] (0-30 μM), the “apoptosis (AV+/PI−) over concentration” value is reported as “apoptosis induction” and the “viability (AV−/PI−) over concentration” value was “concentration-dependent viability reduction”. In the data set on BMMØs [3] (10 μM, 48 hours), the “apoptosis (AV+/PI−)” value is listed as 96.8% and the “cellular viability (AV−/PI−)” value came out at 3.1%. The “toxicity profile for the B cell population” value in data set [4] (0-30 μM) is recorded as “concentration-dependent toxicity profiles”. Further, in data set [4] (10 μM, 24 hours), the “B cell death (AV+/PI+)” value amounted to 54.8% and the “B cell viability (AV−/PI−)” value was 9.5%. Further, the “toxicity for the T cell population” value in data set [5] is listed as “minimal toxicity”. Moreover, the “spleen tissue architecture (H&E)” value with spleen and liver is “moderate histological disorganization”. In data set [6] (setting [7]), the IL-6 cytokine secretion entry was “concentration-dependent reduction” and the TNFα cytokine secretion result is listed as “concentration-dependent reduction”. Moreover, the MCP-1 cytokine secretions entry in data set [6] (10 μM, 3 hours before 48-hour LPS) was “non-significantly affected”. Further, in data set [6] (10 μM, 3 hours before 48-hour LPS, Luminex, SAHA compared to SAHA-OH), the “secretion of IL-10” value is recorded as “increased secretion”.

For orientation: IC50 means the midpoint of a concentration-inhibition curve. As for `CN1CCc2c(c3ccccc3n2Cc2ccc(C(=O)NO)cc2)C1` [Tubastatin A], the IC50 in the data set with HDAC1, 2, 3 was […].
